Test systems include 786-0; A498; ACHN; HCT-116; HCT-15; HT-29; IGROV-1; KM12; MOLT-4; Malme-3M; NCI-H226; NCI-H522; OVCAR-3; OVCAR-4; PC-3; SF-268; SK-MEL-2; SK-MEL-5; T47D; UACC-257.
Common to all, as to assay: NCI-60 cell line screen, 48 h

Each structure is given as a SMILES string.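 A five-concentration, 48-hour dose response in 96-well plates underlies each endpoint, interpolated linearly between surrounding concentrations. Abbreviation: GI50, concentration required for 50% inhibition of growth.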 Calls of active or inactive are those of the source. Rule as the data show it: active = GI50 up to about 1.1 µM and inactive = higher. A value given as a limit tells only on which side of the number the result lay.

Turning to `Cc1cc(SCC(=O)c2ccccc2)nc2ccccc12`, the GI50 in the assay on 786-0 was > 100 µM (inactive); in the assay with A498 it was > 100 µM (inactive); in the assay with ACHN, > 100 µM (inactive); with HCT-116, > 100 µM (inactive); with HCT-15 it was > 100 µM; in the assay with HT-29, 40.1 µM (inactive). For the same compound, the GI50 with IGROV-1 is > 100 µM (inactive); in the assay on KM12, > 100 µM (inactive); in the assay with MOLT-4, > 100 µM (inactive); in the assay with Malme-3M it was > 100 µM (inactive); in the assay with NCI-H226, > 100 µM (inactive); in the assay with NCI-H522, 53.7 µM (inactive). The GI50 is 41.2 µM (inactive) in the assay on OVCAR-3; > 100 µM (inactive) with OVCAR-4; > 100 µM (inactive) in the assay on PC-3; 55.8 µM (inactive) in the assay with SF-268; > 100 µM (inactive) with SK-MEL-2; > 100 µM (inactive) in the assay with SK-MEL-5. Also, the GI50 with T47D and in the assay with UACC-257 was > 100 µM (inactive) each time.
On to `CN1C(=O)C(=CNc2ccccc2Cl)C(=O)N(C)C1=O`, for which the GI50 in the assay on 786-0 is 18.5 µM (inactive); with A498, > 100 µM (inactive); in the assay on ACHN, 24.5 µM (inactive); with HCT-116 it was 18 µM (inactive); with HCT-15, 17.9 µM; with HT-29, > 100 µM (inactive). The GI50 in the assay with IGROV-1 is > 100 µM (inactive); in the assay with KM12, > 100 µM (inactive); in the assay on MOLT-4, 22.6 µM (inactive); with Malme-3M, > 100 µM (inactive); in the assay on NCI-H226, > 100 µM (inactive); with NCI-H522 it was > 100 µM (inactive). Also, the GI50 was 15.2 µM (inactive) in the assay on OVCAR-3; 18.3 µM (inactive) in the assay on OVCAR-4; 20.2 µM (inactive) with PC-3; > 100 µM (inactive) in the assay on SF-268; 19.2 µM (inactive) in the assay on SK-MEL-2; > 100 µM (inactive) with SK-MEL-5. The GI50 is 20.1 µM (inactive) in the assay on T47D and > 100 µM (inactive) with UACC-257.
For the compound `O=[N+]([O-])c1ccc2c(c1)/C(=N/N=C1c3ccccc3Cc3ccccc31)c1cc([N+](=O)[O-])cc([N+](=O)[O-])c1-2`, the GI50 was 1.72 µM (inactive) with 786-0; 5.75 µM (inactive) in the assay on A498; 2.99 µM (inactive) with ACHN; 1.57 µM (inactive) in the assay with HCT-116; 2.14 µM in the assay with HCT-15; 1.97 µM (inactive) with HT-29. For the same compound, the GI50 is 1.55 µM (inactive) in the assay with IGROV-1; 2.47 µM (inactive) in the assay with KM12; 1.91 µM (inactive) with MOLT-4; 2.79 µM (inactive) in the assay on Malme-3M; 13.4 µM (inactive) in the assay on NCI-H226; 1.63 µM (inactive) in the assay with NCI-H522. Further, the GI50 in the assay on OVCAR-3 is 1.69 µM (inactive); in the assay with OVCAR-4, 1.73 µM (inactive); in the assay on PC-3 it was 2.76 µM (inactive); with SF-268, 2.51 µM (inactive); with SK-MEL-2, 9.18 µM (inactive); in the assay with SK-MEL-5, 4.42 µM (inactive). Moreover, the GI50 is 1.78 µM (inactive) with T47D and 2.08 µM (inactive) in the assay with UACC-257.
With `COC(=O)c1ccccc1C#CC#Cc1ccccc1C(=O)OC`, the GI50 in the assay with 786-0 was > 10 µM (inactive); with A498 it was > 10 µM (inactive); with ACHN, > 10 µM (inactive); in the assay on HCT-116, > 10 µM (inactive); in the assay on HCT-15, 7.35 µM; with HT-29, 6.4 µM (inactive). In addition, the GI50 is > 10 µM (inactive) with IGROV-1; 3.19 µM (inactive) in the assay with KM12; > 10 µM (inactive) in the assay on MOLT-4; 6.79 µM (inactive) in the assay on Malme-3M; 5.48 µM (inactive) with NCI-H226; > 10 µM (inactive) in the assay with NCI-H522. For the same compound, the GI50 in the assay with OVCAR-3 is 2.55 µM (inactive); in the assay with OVCAR-4, 2.9 µM (inactive); with PC-3, 9.06 µM (inactive); with SF-268, > 10 µM (inactive); with SK-MEL-2, > 10 µM (inactive); with SK-MEL-5 it was > 10 µM (inactive). Besides, the GI50 in the assay with T47D and in the assay with UACC-257 was > 10 µM (inactive) in each case.
For the compound `CCOP(C)(=O)C(Nc1ccc(F)cc1)c1ccc(F)cc1` (stereo not given), the GI50 was > 100 µM (inactive) in the assay on 786-0; > 100 µM (inactive) in the assay on A498; > 100 µM (inactive) in the assay with ACHN; > 100 µM (inactive) with HCT-116; > 100 µM in the assay on HCT-15; > 100 µM (inactive) in the assay with HT-29. Besides, the GI50 in the assay on IGROV-1, in the assay with KM12, in the assay on MOLT-4, in the assay with Malme-3M, in the assay on NCI-H226 and in the assay on NCI-H522 was > 100 µM (inactive) in each case. Besides, the GI50 in the assay with OVCAR-3, with OVCAR-4, with PC-3, in the assay on SF-268, in the assay with SK-MEL-2 and with SK-MEL-5 was > 100 µM (inactive) throughout. For the same compound, the GI50 in the assay on T47D and in the assay with UACC-257 was > 100 µM (inactive) throughout.
With `COc1ccc(-c2sc(Br)c3c2C(=O)C2OC(=O)NC32)cc1OC` (stereo not given), the GI50 in the assay on 786-0 is > 100 µM (inactive); in the assay on A498, > 100 µM (inactive); with ACHN, > 100 µM (inactive); in the assay with HCT-116, > 100 µM (inactive); with HCT-15, > 100 µM; in the assay with HT-29, > 100 µM (inactive). Besides, the GI50 in the assay with IGROV-1, in the assay with KM12, with MOLT-4, in the assay on Malme-3M, in the assay on NCI-H226 and with NCI-H522 was > 100 µM (inactive) throughout. The GI50 in the assay on OVCAR-3, in the assay with OVCAR-4, with PC-3, in the assay with SF-268, with SK-MEL-2 and in the assay on SK-MEL-5 was > 100 µM (inactive) throughout. Besides, the GI50 in the assay on T47D and in the assay on UACC-257 was > 100 µM (inactive) each time.
For the compound `O=C1NC(Cc2c[nH]c3ccccc23)C(=O)N2C(c3ccccc3)c3[nH]c4ccccc4c3C[C@@H]12` (stereo not given in full), the GI50 is 16.2 µM (inactive) in the assay on 786-0; 29.8 µM (inactive) in the assay with A498; 29.4 µM (inactive) with ACHN; 15.4 µM (inactive) with HCT-116; 21.7 µM in the assay with HCT-15; 22.1 µM (inactive) in the assay on HT-29. Besides, the GI50 was 22.2 µM (inactive) in the assay with IGROV-1; 19.3 µM (inactive) in the assay on KM12; 12.6 µM (inactive) with MOLT-4; 15 µM (inactive) in the assay with Malme-3M; 35.6 µM (inactive) with NCI-H226; 18.1 µM (inactive) in the assay with NCI-H522. Moreover, the GI50 was 15.5 µM (inactive) in the assay on OVCAR-3; 26.9 µM (inactive) with OVCAR-4; 18.7 µM (inactive) with PC-3; 26.1 µM (inactive) in the assay on SF-268; 23.8 µM (inactive) in the assay on SK-MEL-2; 17.5 µM (inactive) in the assay on SK-MEL-5. The GI50 with T47D was 24.4 µM (inactive); with UACC-257 it was 25.4 µM (inactive).

The values are drawn from ChEMBL document CHEMBL1201862, “PubChem BioAssay data set” (2004).
